In PMC7808659, “Lotus japonicus karrikin receptors display divergent ligand-binding specificities and organ-dependent redundancy” (PLoS Genetics, 2020):

Legend:
LjKAI2b [1] = molecular target: LjKAI2b (Lotus japonicus, UniProt I3S3D1, W158F/M161L/L191S); assay: differential scanning fluorimetry; intrinsic tryptophan fluorescence; type: binding; details: SYPRO Tangerine; shift from 25 uM
Source text: differential scanning fluorimetry; intrinsic tryptophan fluorescence on LjKAI2b | LjKAI2b^[…],[…],F158 gained a strong response to GR24^ent-5DS

LjKAI2b [2] = molecular target: LjKAI2b (Lotus japonicus, UniProt I3S3D1, W158F); assay: as above; type: binding; details: SYPRO Tangerine; response like wild-type LjKAI2a
LjKAI2b (Lotus japonicus, UniProt I3S3D1, W158F), sequence (I3S3D1 entry or part of it W158F): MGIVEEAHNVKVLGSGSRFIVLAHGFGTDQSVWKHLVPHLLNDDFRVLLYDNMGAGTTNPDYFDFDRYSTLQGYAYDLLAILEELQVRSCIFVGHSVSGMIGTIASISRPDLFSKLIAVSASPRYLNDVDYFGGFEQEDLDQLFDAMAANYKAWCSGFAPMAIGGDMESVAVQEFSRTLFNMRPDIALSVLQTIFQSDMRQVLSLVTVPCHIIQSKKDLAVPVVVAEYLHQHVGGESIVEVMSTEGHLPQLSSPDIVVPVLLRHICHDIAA

LjKAI2b (Lotus japonicus, UniProt I3S3D1, W158F/M161L/L191S), sequence (I3S3D1 entry or part of it W158F/M161L/L191S): as the sequence (I3S3D1 entry or part of it W158F) above, with M161L, L191S counted along it

`CC1=C[C@@H](O/C=C2/C(=O)O[C@H]3c4ccccc4C[C@@H]23)OC1=O` (racemic) [GR24^ent-5DS] was tested, and the “differential scanning fluorimetry; intrinsic tryptophan fluorescence” value (LjKAI2b [1]) was “LjKAI2b^L161,S191,F158 gained a strong response to GR24^ent-5DS” and the “differential scanning fluorimetry; intrinsic tryptophan fluorescence” value (LjKAI2b [2]) was “LjKAI2b^F158 recapitulated the response of LjKAI2a to GR24^ent-5DS”.
